Data as given in patent publication US5859032A, “Pyridine derivative, anti-ulcer drug, and antibacterial drug” (priority 1996, dated 1999).

Assays:
[1] = system: gastric mucosa; experiment: PD: Gastric Mucosal Integrity Test; format: in vivo, rat (male CDj:SD); parameters: key: 5: Same as the control with no recognizable damage at all.; 4: Though a slight PD-decreasing tendency suggesting a slight possibility of mucosal damage is found, there is no problem.; 3: Though a weak decrease in PD and a possibility of a weak mucosal damage is recognized, there is no substantial problem.; 2: Medium degree of decrease in PD is found and a mucosal damage is recognized.; 1: Heavy degree of decrease in PD is found and a remarkable mucosal damage is recognized; details: rat, 100 mg/kg into chamber, 60 minutes
Experimental: PD: Gastric Mucosal Integrity Test
In this case, since the sample compound has a necrotizing effect, it is inappropriate as an anti-ulcer medicament.
Therefore, the gastric mucosal potential difference (PD), which reflects the integrity of the gastric mucosa, is measured so as to confirm that the sample compound has no damaging effect on gastric mucosa, which is toxicity at gastric mucosal level.
Male CDj:SD rats (7 to 8-week-old) were fasted overnight, but allowed free access to water, and then, under urethane anesthesia (1.25 g/kg, i.p.), fixed to a cork board on its back. The abdomen of each rat was incised, and a small incision was made in the forestomach. Then, the inside of the stomach was washed with physiological saline heated at 37° C. From the forestomach, along the greater curvature thereof, the stomach was incised without damaging blood vessels. After the height of the cork board was adjusted on a jack, the stomach was mounted on ex vivo chamber. The area of the gastric mucosa exposed to the inside of this chamber was 2.5 cm^2. The inside of the chamber was perfused with physiological saline warmed at 37° C. by micro tube pump. By using an agar bridge containing 3M KCl, the potential difference between the chamber and the abdominal cavity was measured by a PD meter. Here, the rectal temperature was measured to control the body temperature during the experiment. […] To a control, the vehicle was administered.
The change in PD during 60 minutes after the administration of 100 mg/kg of the sample compound was collectively studied and, with reference to the positive control, classified into 5 levels as follows:
5: Same as the control with no recognizable damage at all.
3: Though a weak decrease in PD and a possibility of a weak mucosal damage is recognized, there is no substantial problem.
2: Medium degree of decrease in PD is found and a mucosal damage is recognized.
1: Heavy degree of decrease in PD is found and a remarkable mucosal damage is recognized.

[2] = MTT: Cell Damaging and Protecting Effect Test; format: cell-based, Japanese White rabbit; details: rabbit, gastric mucosa cells, 10^-4 M, 37° C., smaller value is better, read-out: MTT: cell damaging rate
Description: MTT: Cell Damaging and Protecting Effect Test
It is confirmed that there is no toxicity in cell level. Those having a toxicity in cell level are inappropriate as an anti-ulcer drug.
A male Japanese White rabbit (2.5 to 3 kg) was anesthetized to death by Nembutal™ and, immediately thereafter, its stomach was removed. The greater curvature of the stomach was incised so as to remove the stomach contents therefrom. After the mucosal surface was washed with HBSS (Hanks' Balanced Salt Solution), the stomach in ice-cooled HBSS was transferred to a laboratory. Then, after the pyloric antrum was removed, the gastric corpus mucosa was separated by a spatula and then minced into 2 to 3 mm^3 pieces in BME (Basal Medium Eagle). Thereafter, these pieces were shaken at 120 to 130 cycles/minute for 15 minutes at 37° C. in BME 60 ml containing 280 U/ml of dispase and 30 to 50 U/ml of collagenase. Here, the concentration of collagenase was appropriately changed for each lot in view of the state of cells. The pieces were washed twice with EBSS (Earle's Balanced Salt Solution) containing 1 mM of EDTA and then shaken in MEM (Minimum Essential Medium) containing 1 mM of EDTA at 37° C. for 5 minutes. Subsequently, they were shaken in the dispase and collagenase having the same concentrations as those mentioned above for 15 minutes so as to remove the supernatant and then further shaken at 37° C. for 50 to 60 minutes at 120 to 130 cycles/minute. Then, after being washed twice with HBSS, Ham F12 containing 2% of Ultrocer GT™ was used to attain the concentration of 1×10^6 cells/ml. Thus formed suspension was dispensed in each well of a 96-well plate by 200 μl. The plate was incubated in the atmosphere composed of 5% CO2 and 95% air at 37° C. for three days so as to attain a confluent state and then subjected to MTT assay.
The sample compound was dissolved in DMSO so as to attain a concentration of 10^-2 M and then diluted with HBSS containing 2% of Ultrocer G™ so as to attain a final concentration of 10^-4 M. To each group, which 8 wells were used for, 10 μl of MTT reagent was added immediately after 100 μl of the medium in each well was exchanged for same volume of the resulting solution of the sample compound. After being incubated in an atmosphere composed of 5% CO2 and 95% air at 37° C. for 4 hours, thus formed solution was centrifuged and then its supernatant was discarded. Subsequently, 100 μl of 100% ethanol was added to the residue so as to dissolve MTT formazan. Then, the absorbance (OD: 570 to 630) was measured by a microplate reader. This method utilizes a phenomenon in which MTT is changed to MTT formazan only by mitochondria of living cells so as to change color.
The cell damaging or cell protecting effect of the sample compound at the final concentration of 10^-4 M was expressed as cell damaging rate (%) as follows:
cell damaging rate (%)=(1-(absorbance in sample group/absorbance in control
Accordingly, the smaller value is better in the cell damaging rate.

[3] = system: mice; details: mouse, in vivo
Experimental: AT: Single Dose Toxicity Pretest
Male Slc:ICR mice (5-week-old) were used. Each group has 3 to 5 mice and each mouse was fasted, but allowed free access to water, for 4 to 5 hours from 9 a.m. in the test day. Then, 2,000 mg/10 ml/kg of the sample compound dissolved or suspended in an aqueous solution of 0.5% sodium carboxymethyl cellulose was orally administered thereto. To a control, only the vehicle was administered. […] The body weight was measured before and after the fasting as well as at the same time everyday. The dead animals were immediately subjected to autopsy and their organs were observed microscopically. Also, the living animals were sacrificed with ether or carbon dioxide one week after the administration and then their organs were observed microscopically.
The toxicity at the single dose of 2,000 mg/kg of the sample compound was expressed as being classified into 5 levels.
5: Mortality rate is 0%; no toxicity is found at all both in behavior and organs.
4: Mortality rate is 0%; while no toxicity is found in organs, slight toxicity is observed in behavior and body weight increase.
3: While there is a dead animal (though not all the animals are dead), no toxicity is found in organs.
2: Regardless of whether there is a dead animal or not, toxicity is found in organs.
1: All the animals are dead.

SMILES	PD: change in gastric mucosal potential difference (5 levels) [1]	cytotoxicity at 4 h, 100 µM [2] [%]	AT: toxicity at the single dose (5 levels) [3]
CC(C)=CCC/C(C)=C/COc1ccc(C(=O)NCCc2ccccn2)cc1 [Example 1, 2-[2-(4-geranyloxybenzoylamino)ethyl]pyridine]	5	8	5
CC(C)=CCC/C(C)=C/COc1ccc(C(=O)NCCc2ccncc2)cc1 [Example 2, 4-[2-(4-geranyloxybenzoylamino)ethyl]pyridine]	3	7	5
CC(C)=CCC/C(C)=C/COc1ccc(C(=O)NCc2ccncc2)cc1 [Example 3, 4-(4-geranyloxybenzoylaminomethyl)pyridine]	3	16	5
CC(C)=CCC/C(C)=C/COc1ccc(C(=O)Nc2cccnc2)cc1 [Example 4, 3-(4-geranyloxybenzoylamino)pyridine]	5	6	
CC(C)=CCOc1ccc(OCC=C(C)C)c(C(=O)NCCc2ccncc2)c1 [Example 6, 4-[2-(2,5-diprenyloxybenzoylamino)ethyl]pyridine]	5	-94	
CC(C)=CCC/C(C)=C/COc1ccc(C(=O)NCCNc2cccnc2)cc1 [Example 7, 3-[2-(4-geranyloxybenzoylamino)ethylamino]pyridine]	3	48	
COc1ccc(NCCNC(=O)c2ccc(OC/C=C(\C)CCC=C(C)C)cc2)nc1 [Example 8, 2-[2-(4-geranyloxybenzoylamino)ethylamino]-5-methoxypyridine]	5	-45	5
CC(C)=CCC/C(C)=C/COc1ccc(C(=O)NCCNc2cc(C)cc(C)n2)cc1 [Example 10, 2,4-dimethyl-6-[2-(4-geranyloxybenzoylamino)ethylamino]pyridine]	3	65	4
COc1ccc(SCCNC(=O)c2ccc(OC/C=C(\C)CCC=C(C)C)cc2)nc1 [Example 11, 2-[2-(4-geranyloxybenzoylamino)ethylthio]-5-methoxypyridine]	4	-34	5
CC(C)=CCC/C(C)=C/COc1ccc(C(=O)NCC(=O)Nc2ccccn2)cc1 [Example 13, 2-[2-(4-geranyloxybenzoylamino)acetylamino]pyridine]	5	-36	5
